Reference: patent publication US20100093723A1, “HETEROCYCLYL AND CYCLOALKYL SUBSTITUTED THIENO[2,3 d]PYRIMIDINE AND THEIR USE AS ADENOSINE A2a RECEPTOR ANTAGONISTS” (priority 2008, published 2010)
pKi: −log10 of the molar value. One block for each compound: values may come before it.

Experiments:
[1] = biological target: T1, human adenosine A2a receptor (Homo sapiens, UniProt P29274); assay: Adenosine A2a Receptor Functional Assay (A2AGAL2); type: cell-based; conditions: CHO-K1 cells overexpressing human A2a receptor, cAMP inducible beta-galactosidase reporter, 15 nM NECA agonist challenge; read-out: A2AGAL2_v4 Ki
T1 construct: expressed in transfected cells; host or cells: CHO-K1
T1 sequence (P29274 whole entry): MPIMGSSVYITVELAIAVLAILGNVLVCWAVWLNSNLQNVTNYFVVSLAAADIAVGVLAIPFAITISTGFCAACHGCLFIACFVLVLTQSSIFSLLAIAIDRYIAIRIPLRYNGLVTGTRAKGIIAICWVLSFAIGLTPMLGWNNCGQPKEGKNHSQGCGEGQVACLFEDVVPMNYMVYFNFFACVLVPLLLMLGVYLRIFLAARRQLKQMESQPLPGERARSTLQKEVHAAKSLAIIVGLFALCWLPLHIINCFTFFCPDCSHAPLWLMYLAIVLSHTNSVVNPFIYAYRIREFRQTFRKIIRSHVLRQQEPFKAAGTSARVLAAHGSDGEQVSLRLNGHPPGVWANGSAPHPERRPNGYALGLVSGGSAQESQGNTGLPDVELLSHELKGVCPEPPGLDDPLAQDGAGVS
Experimental: Adenosine A2a Receptor Functional Assay (A2AGAL2)
(§1) To initiate the functional assay, cryopreserved CHO-K1 cells overexpressing the human adenosine A2a receptor and containing a cAMP inducible beta-galactosidase reporter gene were thawed, centrifuged, DMSO containing media removed, and then seeded with fresh culture media into clear 384-well tissue culture treated plates (BD #353961) at a concentration of 10K cells/well. Prior to assay, these plates were cultured for two days at 37° C., 5% CO2, 90% Rh. On the day of the functional assay, culture media was removed and replaced with 45 uL assay medium (Hams/F-12 Modified (Mediatech # 10-080CV) supplemented w/0.1% BSA). Test compounds were diluted and 11 point curves created at a 1000× concentration in 100% DMSO. Immediately after addition of assay media to the cell plates, 50 nL of the appropriate test compound antagonist or agonist control curves were added to cell plates using a Cartesian Hummingbird. Compound curves were allowed to incubate at room temperature on cell plates for approximately 15 minutes before addition of a 15 nM NECA (Sigma E2387) agonist challenge (5 uL volume). A control curve of NECA, a DMSO/Media control, and a single dose of Forskolin (Sigma F3917) were also included on each plate. After additions, cell plates were allowed to incubate at 37° C., 5% CO2, 90% Rh for 5.5-6 hours. After incubation, media was removed, and cell plates were washed 1×50 uL with DPBS w/o Ca & Mg (Mediatech 21-031-CV). Into dry wells, 20 uL of 1× Reporter Lysis Buffer (Promega E3971 (diluted in dH2O from 5× stock)) was added to each well and plates frozen at −20° C. overnight. For β-galactosidase enzyme colorimetric assay, plates were thawed out at room temperature and 20 μL 2× assay buffer (Promega) was added to each well. Color was allowed to develop at 37° C., 5% CO2, 90% Rh for 1-1.5 h or until reasonable signal appeared. The colorimetric reaction was stopped with the addition of 60 μL/well 1M sodium carbonate. Plates were counted at 405 nm on a SpectraMax Microplate Reader (Molecular Devices). Data was analyzed in Microsoft Excel and IC/EC50 curves were fit using a standardized macro.

[2] = biological target: T2, human A2a adenosine receptor (Homo sapiens, UniProt P29274); assay: Ligand Binding Assay for Adenosine A2a Receptor (A2A-B); conditions: plasma membrane of HEK293 cells, radioligand [3H]CGS21680; read-out: A2A-B_v3 Ki
T2 construct: purchased PerkinElmer RB-HA2a; host or cells: HEK293 cell plasma membranes
T2 sequence (P29274 whole entry): as above
Experimental: Ligand Binding Assay for Adenosine A2a Receptor (A2A-B)
Ligand binding assay of adenosine A2a receptor was performed using plasma membrane of HEK293 cells containing human A2a adenosine receptor (PerkinElmer, RB-HA2a) and radioligand [^3H]CGS21680 (PerkinElmer, NET1021). Assay was set up in 96-well polypropylene plate in total volume of 200 μL by sequentially adding 20 μL 1:20 diluted membrane, 130 μL assay buffer (50 mM Tris.HCl, pH7.4 10 mM MgCl2, 1 mM EDTA) containing [^3H] CGS21680, 50 μL diluted compound (4×) or vehicle control in assay buffer. Nonspecific binding was determined by […] NECA. Reaction was carried out at room temperature for 2 hours before filtering through 96-well GF/C filter plate pre-soaked in 50 mM Tris.HCl, pH7.4 containing 0.3% polyethylenimine. Plates were then washed 5 times with cold 50 mM Tris.HCl, pH7.4, dried and sealed at the bottom. Microscintillation fluid 30 μL was added to each well and the top sealed. Plates were counted on Packard Topcount for [^3H]. Data was analyzed in Microsoft Excel and GraphPad Prism programs. (Varani, K.; Gessi, S.; Dalpiaz, A.; Borea, P. A. British Journal of Pharmacology, 1996, 117, 1693)

[3] = biological target: T3, human adenosine A1 receptor (Homo sapiens, UniProt P30542); assay: Adenosine A1 Receptor Functional Assay (A1GAL2); type: cell-based; conditions: CHO-K1 cells overexpressing human A1 receptor, cAMP inducible beta-galactosidase reporter, 4 nM r-PIA/1 uM Forskolin agonist challenge; read-out: A1GAL2_v3 Ki
T3 construct: expressed in transfected cells; host or cells: CHO-K1
T3 sequence (P30542 1-326): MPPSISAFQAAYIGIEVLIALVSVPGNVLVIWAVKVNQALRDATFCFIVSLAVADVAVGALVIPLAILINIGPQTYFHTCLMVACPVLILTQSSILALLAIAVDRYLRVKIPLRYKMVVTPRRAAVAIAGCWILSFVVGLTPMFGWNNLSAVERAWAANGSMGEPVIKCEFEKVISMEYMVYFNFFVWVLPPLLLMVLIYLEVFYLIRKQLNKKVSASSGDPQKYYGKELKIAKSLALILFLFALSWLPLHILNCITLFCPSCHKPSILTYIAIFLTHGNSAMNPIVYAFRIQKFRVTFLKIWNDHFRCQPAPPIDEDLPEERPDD
Experimental: Adenosine A1 Receptor Functional Assay (A1GAL2)
as §1, with “adenosine A1” for “adenosine A2a”, “a 4” for “a 15”, “nM r-PIA” for “nM NECA”, “(Sigma P4532)/1 uM Forskolin (Sigma F3917)” for “(Sigma E2387)”, “of r-PIA in 1 uM Forskolin,” for “of NECA,”, “Forskolin” for “Forskolin (Sigma F3917)”

SMILES: Nc1nc(-c2ncco2)nc2sc(CCN3CCOCC3)cc12 [Example 3, 6-(2-Morpholin-4-yl-ethyl)-2-oxazol-2-yl-thieno[2,3-d]pyrimidin-4-ylamine]
pKi [1]: 6.62 | pKi [3]: 4.73

SMILES: Cc1csc(-c2nc(N)c3cc(CCN4CCOCC4)sc3n2)n1 [Example 4, 2-(4-Methyl-thiazol-2-yl)-6-(2-morpholin-4-yl-ethyl)-thieno[2,3-d]pyrimidin-4-ylamine]
pKi [1]: 6.72 | pKi [3]: 5.63

SMILES: N#Cc1cccc(-c2nc(N)c3cc(CCN4CCOCC4)sc3n2)c1 [Example 5, 3-[4-Amino-6-(2-morpholin-4-yl-ethyl)-thieno[2,3-d]pyrimidin-2-yl]-benzonitrile]
pKi [1]: 7.40 | pKi [3]: 6.23

SMILES: N#Cc1cccc(-c2nc(N)c3cc([C@H](O)CN4CCOCC4)sc3n2)c1 [Example 6, 3-[4-Amino-6-(1-hydroxy-2-morpholin-4-yl-ethyl)-thieno[2,3-d]pyrimidin-2-yl]-benzonitrile]
pKi [1]: 7.53 | pKi [3]: 6.50

SMILES: C[C@@H]1CCC[C@H](C)N1C[C@@H](O)c1cc2c(N)nc(-c3cccc(C#N)c3)nc2s1 [Example 7, 3-{4-Amino-6-[2-(2,6-dimethyl-piperidin-1-yl)-1-hydroxy-ethyl]-thieno[2,3-d]pyrimidin-2-yl}-benzonitrile]
pKi [1]: 6.71 | pKi [3]: 6.07

Now from value to compound:

pKi [1]: 7.11 | pKi [2]: 7.47 | pKi [3]: 5.42
SMILES: Cc1ccc(-c2nc(N)c3cc(CC4CCCCC4)sc3n2)o1 [Example 1, 6-Cyclohexylmethyl-2-(5-methyl-furan-2-yl)-thieno[2,3-d]pyrimidin-4-ylamine]

pKi [1]: < 5.83 | pKi [3]: < 5.88
SMILES: CC(C)(C)c1ccc(-c2nc(N)c3cc(CCN4CCOCC4)sc3n2)s1 [Example 2, 2-(5-tert-Butyl-thiophen-2-yl)-6-(2-morpholin-4-yl-ethyl)-thieno[2,3-d]pyrimidin-4-ylamine]
